1 molecule from paper PMC4367896, “Microbial host selection affects intracellular localization and activity of alcohol-O-acetyltransferase” (Microbial Cell Factories, 2015) can be followed below.

Holding throughout (conditions): 500 mM ethanol, 0.5 mM acetyl-CoA, pH 7.4, 30 °C
Experiment [1] deals with T1, Atf2-S.c (Saccharomyces cerevisiae, UniProt P53296).
T1 sequence (P53296 1-535): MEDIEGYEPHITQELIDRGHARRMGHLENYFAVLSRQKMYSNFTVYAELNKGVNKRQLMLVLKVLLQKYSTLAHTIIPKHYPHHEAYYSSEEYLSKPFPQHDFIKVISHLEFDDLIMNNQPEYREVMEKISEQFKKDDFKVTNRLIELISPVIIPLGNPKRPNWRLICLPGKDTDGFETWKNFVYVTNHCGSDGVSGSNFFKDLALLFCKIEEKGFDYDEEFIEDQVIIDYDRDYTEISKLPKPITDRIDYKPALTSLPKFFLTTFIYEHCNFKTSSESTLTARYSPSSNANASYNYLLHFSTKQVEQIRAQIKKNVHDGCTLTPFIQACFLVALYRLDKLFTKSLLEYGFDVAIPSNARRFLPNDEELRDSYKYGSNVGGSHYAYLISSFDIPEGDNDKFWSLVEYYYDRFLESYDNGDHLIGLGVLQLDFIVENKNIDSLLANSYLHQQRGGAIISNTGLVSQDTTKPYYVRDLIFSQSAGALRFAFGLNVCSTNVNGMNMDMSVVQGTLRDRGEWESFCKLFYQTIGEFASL

The target in experiment [2] is T2, Atf-P.a (Hansenula anomala, UniProt H6UWN0).
T2 construct: gene WAN_10494; C-terminal GFP fusion (reporter); expressed in S. cerevisiae (pYPAG) and E. coli BL21(DE3) (pPAG)
T2 sequence (H6UWN0 1-427): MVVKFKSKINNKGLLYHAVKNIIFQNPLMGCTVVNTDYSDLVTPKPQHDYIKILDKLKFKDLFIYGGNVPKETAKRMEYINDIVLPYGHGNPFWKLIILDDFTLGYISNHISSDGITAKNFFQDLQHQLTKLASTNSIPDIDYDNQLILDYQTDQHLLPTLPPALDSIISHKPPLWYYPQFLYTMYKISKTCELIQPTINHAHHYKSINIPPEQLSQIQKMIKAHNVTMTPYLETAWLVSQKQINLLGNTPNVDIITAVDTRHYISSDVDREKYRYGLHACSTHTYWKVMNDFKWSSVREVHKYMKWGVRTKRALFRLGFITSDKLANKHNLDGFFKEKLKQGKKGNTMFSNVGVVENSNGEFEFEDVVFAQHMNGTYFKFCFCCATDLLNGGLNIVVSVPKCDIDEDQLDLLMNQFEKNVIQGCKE
In words: headspace GC of ethyl acetate, whole cell lysate. The experiment is classed as biochemical.

For experiment [3], the target named is T3, Atf-S.p (Saccharomyces pastorianus, UniProt Q12678).
T3 construct: gene ATF1_2; C-terminal GFP fusion (reporter); expressed in S. cerevisiae (pYSPG) and E. coli BL21(DE3) (pSPG)
T3 sequence (Q12678 1-545): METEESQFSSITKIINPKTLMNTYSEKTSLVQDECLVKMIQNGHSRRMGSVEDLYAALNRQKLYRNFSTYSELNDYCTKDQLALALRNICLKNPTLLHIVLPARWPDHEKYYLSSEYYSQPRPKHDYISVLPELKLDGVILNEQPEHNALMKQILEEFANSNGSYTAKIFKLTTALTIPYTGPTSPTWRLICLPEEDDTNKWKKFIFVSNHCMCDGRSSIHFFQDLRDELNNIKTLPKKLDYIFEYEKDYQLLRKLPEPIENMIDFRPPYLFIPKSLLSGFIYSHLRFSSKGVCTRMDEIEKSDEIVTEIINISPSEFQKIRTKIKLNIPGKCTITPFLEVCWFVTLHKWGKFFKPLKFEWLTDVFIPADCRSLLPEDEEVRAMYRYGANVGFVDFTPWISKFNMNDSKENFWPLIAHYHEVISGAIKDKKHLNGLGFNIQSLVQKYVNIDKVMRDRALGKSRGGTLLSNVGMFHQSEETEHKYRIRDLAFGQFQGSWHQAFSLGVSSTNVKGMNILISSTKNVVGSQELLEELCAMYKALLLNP
In words: headspace GC of ethyl acetate, whole cell lysate. Type of experiment: biochemical.

In experiment [4] the target is T4, Atf-S.l (Solanum lycopersicum, UniProt Q6QLX4).
T4 construct: gene AAT1; C-terminal GFP fusion (reporter); expressed in S. cerevisiae (pYSLG) and E. coli BL21(DE3) (pSLG); N-terminus from primer MANILPI
T4 sequence (Q6QLX4 1-442): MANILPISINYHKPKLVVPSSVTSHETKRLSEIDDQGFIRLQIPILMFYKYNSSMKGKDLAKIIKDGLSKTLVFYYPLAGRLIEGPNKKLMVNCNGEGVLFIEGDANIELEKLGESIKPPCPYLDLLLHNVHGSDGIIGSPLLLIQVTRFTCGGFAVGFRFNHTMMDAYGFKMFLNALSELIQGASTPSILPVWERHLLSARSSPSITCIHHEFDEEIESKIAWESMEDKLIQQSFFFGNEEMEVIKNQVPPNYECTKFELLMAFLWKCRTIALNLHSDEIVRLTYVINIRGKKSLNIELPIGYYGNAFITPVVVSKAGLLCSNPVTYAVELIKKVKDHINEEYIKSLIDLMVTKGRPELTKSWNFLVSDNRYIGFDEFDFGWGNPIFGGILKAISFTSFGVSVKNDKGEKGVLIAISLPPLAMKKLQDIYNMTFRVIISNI
In words: headspace GC of ethyl acetate, whole cell lysate. Type of experiment: biochemical.

The target in experiment [5] is T5, Atf1-S.c (Saccharomyces cerevisiae, UniProt P40353).
T5 sequence (P40353 1-525): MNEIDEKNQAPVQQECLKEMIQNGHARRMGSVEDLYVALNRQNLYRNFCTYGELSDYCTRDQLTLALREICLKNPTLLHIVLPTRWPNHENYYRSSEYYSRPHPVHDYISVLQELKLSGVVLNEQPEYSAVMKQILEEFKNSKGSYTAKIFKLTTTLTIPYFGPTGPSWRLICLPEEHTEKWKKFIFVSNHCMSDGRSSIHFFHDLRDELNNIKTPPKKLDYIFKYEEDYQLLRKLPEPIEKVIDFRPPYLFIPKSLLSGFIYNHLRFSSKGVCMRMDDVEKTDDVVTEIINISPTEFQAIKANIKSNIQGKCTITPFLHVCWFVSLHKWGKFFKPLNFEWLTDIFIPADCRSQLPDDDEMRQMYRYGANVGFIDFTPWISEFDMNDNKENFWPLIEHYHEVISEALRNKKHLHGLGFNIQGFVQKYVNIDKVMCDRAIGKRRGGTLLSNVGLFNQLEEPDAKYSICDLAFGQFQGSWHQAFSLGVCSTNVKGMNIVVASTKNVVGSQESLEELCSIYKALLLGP

In experiment [6] the target is T6, Atf-K.l (Kluyveromyces lactis, UniProt Q6CJX7).
T6 construct: gene KLLA0_F15202g; C-terminal GFP fusion (reporter); expressed in S. cerevisiae (pYKLG) and E. coli BL21(DE3) (pKLG)
T6 sequence (Q6CJX7 1-517): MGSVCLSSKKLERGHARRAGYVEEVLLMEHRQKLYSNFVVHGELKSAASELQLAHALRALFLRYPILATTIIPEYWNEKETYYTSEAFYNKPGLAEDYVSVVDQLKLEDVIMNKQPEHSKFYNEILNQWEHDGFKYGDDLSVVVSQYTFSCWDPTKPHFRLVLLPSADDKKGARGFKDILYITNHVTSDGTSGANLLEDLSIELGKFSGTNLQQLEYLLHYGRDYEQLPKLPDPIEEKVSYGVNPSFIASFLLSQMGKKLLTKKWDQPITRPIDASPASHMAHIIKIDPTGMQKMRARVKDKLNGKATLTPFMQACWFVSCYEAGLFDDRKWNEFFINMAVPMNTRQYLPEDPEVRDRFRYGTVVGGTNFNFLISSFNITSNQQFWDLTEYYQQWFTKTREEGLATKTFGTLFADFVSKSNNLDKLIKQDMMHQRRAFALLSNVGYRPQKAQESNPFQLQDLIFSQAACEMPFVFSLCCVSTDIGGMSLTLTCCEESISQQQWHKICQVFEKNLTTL
In words: headspace GC of ethyl acetate, whole cell lysate. Type of experiment: biochemical.

For `CC(=O)SCCNC(=O)CCNC(=O)[C@H](O)C(C)(C)COP(=O)(O)OP(=O)(O)OC[C@H]1O[C@@H](n2cnc3c(N)ncnc32)[C@H](O)[C@@H]1OP(=O)(O)O` [acetyl-CoA], the “headspace GC of ethyl acetate, whole cell lysate” value in experiment [1] was “AATase activity was measured using ethanol and acetyl-CoA as substrates”; in experiment [2] it was “AATase activity was measured using ethanol and acetyl-CoA as substrates”; in experiment [3], “AATase activity was measured using ethanol and acetyl-CoA as substrates”; in experiment [4] it was “AATase activity was measured using ethanol and acetyl-CoA as substrates”; in experiment [5] it was “AATase activity was measured using ethanol and acetyl-CoA as substrates”; in experiment [6], “AATase activity was measured using ethanol and acetyl-CoA as substrates”.
